Laboratory results reported in patent publication US10208033B2, “β-carboline, dihydro-β-carboline and tetrahydro-β-carboline alkaloid derivatives and preparation methods same and use in aspects of preventing and treating plant viruses, fungicides and insecticides” (NANKAI UNIVERSITY, priority 2013, dated 2019).
Where a name gives a salt, the structure may show the parent alone. Read-outs that look alike come from different tables or passages of the source.

Legend:
[1] = system: tobacco mosaic virus (TMV); assay: Anti-TMV in vitro effect (half-leaf soaking); type: cell-based, tobacco mosaic virus (host Nicotiana tabacum L.cv.Xanthi NN)
[2] = system: tobacco mosaic virus (TMV); assay: Anti-TMV in vivo inactivation; design: species or system tobacco mosaic virus (host Nicotiana tabacum L.cv.Xanthi NN)
[3] = system: tobacco mosaic virus (TMV); assay: Anti-TMV in vivo therapeutic effect; design: species or system tobacco mosaic virus (host Nicotiana tabacum L.cv.Xanthi NN)
[4] = system: tobacco mosaic virus (TMV); assay: Anti-TMV in vivo protective effect; design: species or system tobacco mosaic virus (host Nicotiana tabacum L.cv.Xanthi NN)
cucumber fusarium wilt = assay: Fungicidal (bactericidal) activity in vitro, PDA colony diameter; type: cell-based; details: 50 mg/kg
Cercospora arachidicola = assay: as above; type: cell-based; details: 50 mg/kg
Macrophoma kawatsukai = assay: as above; type: cell-based; details: 50 mg/kg
Alternaria solani = assay: as above; type: cell-based; details: 50 mg/kg
Fusarium graminearumt = assay: microbe, parasite or virus in culture; type: cell-based; details: 50 mg/kg
potato late blight = assay: microbe, parasite or virus in culture; type: cell-based
Sclerotinia scleotiorum = assay: Fungicidal (bactericidal) activity in vitro, PDA colony diameter; type: cell-based; details: 50 mg/kg
Botrytis cinerea = assay: as above; type: cell-based; details: 50 mg/kg
Rhizoctonia solani = assay: as above; type: cell-based; details: 50 mg/kg
Phytophthora capsici = assay: as above; type: cell-based; details: 50 mg/kg
Fusarium fujikuroi = assay: as above; type: cell-based; details: 50 mg/kg
Rhizoctonia cereali = assay: as above; type: cell-based
Bipolaria maydis = assay: organism not typed; type: cell-based; details: 50 mg/kg
[5] = system: Colletotrichum orbiculare; assay: Fungicidal (bactericidal) activity in vitro, PDA colony diameter; type: cell-based; details: 50 mg/kg
armyworms = type: in vivo; details: concentration 600 mg/kg
cotton bollworms = assay: whole plant or invertebrate
Experimental: Experimental method of cotton bollworms: feed and drug mixing method: measure 3 mL of prepared solution and add it to about 27 g of newly prepared feed, thereby obtaining needed concentration through dilution by 10 times.

mosquito larvae = assay: whole plant or invertebrate
Procedure, shortened: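 Compound dissolved in acetone (or other solvent) to a 1000 ppm stock and diluted in water to 5 ppm. Ten Culex pipiens pallens larvae at the start of the fourth instar, laboratory-reared, added per beaker; solvent-only aqueous control.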

| Compound | Relative inhibition rate (%) In vitro activity ([1]; treatment dose 100 μg/mL) [%] | Relative inhibition rate (%) In vitro activity ([1]; treatment dose 500 μg/mL) [%] | Relative inhibition rate (%) In vivo inactivation ([2]; treatment dose 100 μg/mL) [%] | Relative inhibition rate (%) In vivo inactivation ([2]; treatment dose 500 μg/mL) [%] | Relative inhibition rate (%) In vivo therapy ([3]; treatment dose 100 μg/mL) [%] | Relative inhibition rate (%) In vivo therapy ([3]; treatment dose 500 μg/mL) [%] | Relative inhibition rate (%) In vivo protection ([4]; treatment dose 100 μg/mL) [%] | Relative inhibition rate (%) In vivo protection ([4]; treatment dose 500 μg/mL) [%] | Bactericidal activity (%) Cucumber fusarium wilt (cucumber fusarium wilt) [%] | Bactericidal activity (%) Cercospora arachidicola (Cercospora arachidicola) [%] | Bactericidal activity (%) Macrophoma kawatsukai (Macrophoma kawatsukai) [%] | Bactericidal activity (%) Alternaria solani (Alternaria solani) [%] | Bactericidal activity (%) Fusarium graminearumt (Fusarium graminearumt) [%] | Bactericidal activity (%) potato late blight (potato late blight) [%] | Bactericidal activity (%) Sclerotinia scleotiorum (Sclerotinia scleotiorum) [%] | Bactericidal activity (%) Botrytis cinerea (Botrytis cinerea) [%] | Bactericidal activity (%) Rhizoctonia solani (Rhizoctonia solani) [%] | Bactericidal activity (%) Phytophthora capsici (Phytophthora capsici) [%] | Bactericidal activity (%) Fusarium fujikuroi (Fusarium fujikuroi) [%] | Bactericidal activity (%) Bipolaria maydis (Bipolaria maydis) [%] | other results |
| --- | --- | --- | --- | --- | --- | --- | --- | --- | --- | --- | --- | --- | --- | --- | --- | --- | --- | --- | --- | --- | --- |
| C[C@@H]1N[C@H](C(=O)NN=Cc2ccncc2)Cc2c1[nH]c1ccccc21 [Ic-15, (1S, 3S)—N′-(pyridine-4-methylene)-1-methyl-2,3,4,9-tetrahydropyridino [3,4-b] indol-3-formylhydrazine] | 0 | 36.6 | 8.8 | 43.4 | 12.9 | 39.6 | 0 | 37.5 | 23.1 | 35.3 | 52.8 | 15.0 | 27.6 | 24.0 | 64.7 | 36.4 | 23.7 | 28.9 | 21.4 | 28.0 | Bactericidal activity (%) Rhizoctonia cereali (Rhizoctonia cereali; 50 mg/kg): 66.7%; Bactericidal activity (%) Colletotrichum orbiculare [5]: 29.6%; Armyworm Mortality (%) (armyworms): 15%; Cotton bollworm Mortality (%) (cotton bollworms; in vivo): 15%; Mosquito larvae Mortality (%) (mosquito larvae; in vivo): 30%; Corn borer Mortality (%) (corn borers; in vivo): 20% |
| C/C=C/C=NNC(=O)[C@@H]1Cc2c([nH]c3ccccc23)[C@H](C)N1 [Ic-22, (1S, 3S)—N′-((E)-but-2-enylidene)-1-methyl-2,3,4,9-tetrahydropyridino [3,4-b] indol-3-formylhydrazine] | 0 | 35.2 | 8.5 | 47 | 0 | 33.2 | 6.7 | 37.1 | 26.9 | 29.4 | 52.8 | 30.0 | 20.7 | 32.0 | 41.2 | 40.9 | 6.6 | 31.6 | 14.3 | 36.0 | Bactericidal activity (%) Rhizoctonia cereali (Rhizoctonia cereali; 50 mg/kg): 64.7%; Bactericidal activity (%) Colletotrichum orbiculare [5]: 22.2%; Armyworm Mortality (%) (armyworms): 40%; Cotton bollworm Mortality (%) (cotton bollworms; concentration 600 mg/kg): 20%; Mosquito larvae Mortality (%) (mosquito larvae; concentration 10 mg/kg, 24 h): 85%; Corn borer Mortality (%) (corn borers; concentration 600 mg/kg): 50% |
| CCCCOC(=O)[C@@H]1Cc2c([nH]c3ccccc23)[C@H](C)N1 [Ib-8, (1S, 3S)-1-methyl-2,3,4,9-tetrahydropyridino [3,4-b] indol-3-butyl formate] | 13.4 | 48.2 | 20.3 | 51.3 | 17.1 | 42.2 | 17.6 | 43.2 | 33.3 | 71.4 | 64.7 | 83.3 | 50.0 | 35.0 | 72.0 | 50.0 | 55.4 | 51.5 | 50.0 | 89.5 | Bactericidal activity (%) Rhizoctonia cereali (Rhizoctonia cereali; 50 mg/kg): 84.4%; Bactericidal activity (%) Colletotrichum orbiculare [5]: 38.1%; Armyworm Mortality (%) (armyworms): 5%; Cotton bollworm Mortality (%) (cotton bollworms; concentration 600 mg/kg): 20%; Mosquito larvae Mortality (%) (mosquito larvae; concentration 10 mg/kg, 24 h): 10%; Corn borer Mortality (%) (corn borers; concentration 600 mg/kg): 0% |
| C[C@@H]1N[C@H](C(=O)NN=Cc2ccc(Cl)cc2Cl)Cc2c1[nH]c1ccccc21 [Ic-6, (1S, 3S)—N′-(2,4-dichlorobenzylidene)-1-methyl-2,3,4,9-tetrahydropyridino [3,4-b] indol-3-formylhydrazine] | 20.1 | 56.8 | 28.5 | 66.7 | 31.5 | 60.4 | 18.6 | 57.2 | 27.3 | 45.5 | 48.5 | 42.9 | 53.8 | 39.1 | 46.2 | 52.8 | 45.8 | 60.6 | 47.1 | 56.0 | Bactericidal activity (%) Rhizoctonia cereali (Rhizoctonia cereali): 56.8%; Bactericidal activity (%) Colletotrichum orbiculare [5]: 60.0%; Armyworm Mortality (%) (armyworms): 45%; Cotton bollworm Mortality (%) (cotton bollworms; concentration 600 mg/kg): 35%; Mosquito larvae Mortality (%) (mosquito larvae; concentration 5 mg/kg, 24 h): 20%; Mosquito larvae Mortality (%) (mosquito larvae; concentration 10 mg/kg, 24 h): 100%; Corn borer Mortality (%) (corn borers; concentration 600 mg/kg): 40% |
